Test results reported in ChEMBL document CHEMBL5137015, “Design, synthesis, and evaluation of a novel series of mono-indolylbenzoquinones derivatives for the potential treatment of breast cancer” (Eur J Med Chem, 2022).
Calls of active or inactive are those of the source. No cut-off for these calls is given here.

Assays:
4T1 [1] = assay: Antitumor activity aginst mouse 4T1 cells implanted in Balb/c mouse assessed as nuclei disappearance at 50 mg/kg, ip administered every two days for 14 days; format: functional, organism-based; conditions: time 14.0 day
[2] = Acute toxicity in mouse assessed as animal death at 5000 mg/kg, po; format: organism-based; conditions: in vivo
MDA-MB-231 [3] = assay: Induction of apoptosis in human MDA-MB-231 cells assessed as increase in HTRA2/omi level at 100 nM incubated for 48 hrs; format: functional, cell-based
A549 = assay: Antiproliferative activity against human A549 cells assessed as inhibition of cell growth by MTT assay; format: functional, cell-based
MDA-MB-231 [4] = assay: Induction of apoptosis in human MDA-MB-231 cells assessed as increase in cytoplasmic vacuoles at 1 uM incubated for 24 hrs by transmission electron microscopic analysis; format: functional, cell-based
4T1 [5] = assay: Antitumor activity against mouse 4T1 cells implanted in Balb/c mouse assessed as tumor growth inhibition by measuring T/C ratio at 50 mg/kg administered intratumorally every four days for 14 days in the presence of liquid cyanoacrylate; format: functional; conditions: route it(Intratumoral), time 14 day
[6] = Toxicity in Balb/c mouse implanted with mouse 4T1 cells assessed as heart lesions at 50 mg/kg administered intratumorally every four days for 14 days by H&E staining based histopathological analysis; format: organism-based; conditions: in vivo, other, 336 h, route it(Intratumoral), time 14 day
MDA-MB-231 [7] = assay: Induction of apoptosis in human MDA-MB-231 cells assessed as apoptotic cells at 10 uM incubated for 24 hrs by Annexin V-FITC/propidium iodide staining based flow cytometric method (reference value: 5.68%); format: functional
MDA-MB-231 [8] = assay: Induction of apoptosis in human MDA-MB-231 cells assessed as increase in caspase 3 expression at 0.5 to 3 times of IC50 concentration by Western blot analysis; format: functional, cell-based
MDA-MB-231 [9] = assay: Induction of apoptosis in human MDA-MB-231 cells assessed as increase in cytochrome C expression at 0.5 to 3 times of IC50 concentration by Western blot analysis; format: functional, cell-based
MDA-MB-231 [10] = assay: Induction of mitochondrial membrane potential loss in human MDA-MB-231 cells assessed as increase in green fluorescence intensity at 0.1 to 1 uM measured after 24 hrs byJC-1 staining based fluorescence microscopic analysis; format: functional, cell-based; conditions: dose 0.1-1 µM
4T1 [11] = assay: Antitumor activity against mouse 4T1 cells implanted in Balb/c mouse assessed as TUNEL positive cells at 50 mg/kg, ip administered every two days for 14 days by TUNEL staining analysis (reference value: 6.55%); format: functional; conditions: time 14 day
4T1 [12] = assay: Antitumor activity against mouse 4T1 cells xenografted in Balb/c mouse assessed as shrinkage of nucleus at 200 mg/kg administered topically over the tumor surface every two days for 14 days in the presence of cyanoacrylate; format: functional, organism-based; conditions: route top, time 14.0 day
[13] = Toxicity in Balb/c mouse implanted with mouse 4T1 cells assessed as kidney lesions at 50 mg/kg administered intratumorally every four days for 14 days in the presence of liquid cyanoacrylate by H&E staining based histopathological analysis; format: organism-based; conditions: in vivo, other, 336 h, route it(Intratumoral), time 14 day
[14] = Acute toxicity in mouse assessed as death rate ratio at 476 mg/kg, ip measured over 14 days; format: organism-based; conditions: in vivo, 336 h, time 14 day
[15] = Drug metabolism in Balb/c mouse kidney implanted with mouse 4T1 cells assessed as 2-methyl hydroxylation of parent compound causing metabolite formation by LC-MS analysis; format: ADME, tissue-based
MDA-MB-231 [16] = assay: Induction of cell cycle arrest in human MDA-MB-231 cells assessed as increase in G2 phase cells at 10 uM incubated for 24 hrs by PI staining based flow cytometric analysis (reference value: 8.95%); format: functional
[17] = Drug metabolism in Balb/c mouse liver implanted with mouse 4T1 cells assessed as 2-methyl hydroxylation of parent compound causing metabolite formation by LC-MS analysis; format: ADME, tissue-based
4T1 [18] = assay: Antitumor activity against mouse 4T1 cells xenografted in Balb/c mouse assessed as tumor growth inhibition at 50 mg/kg administered intratumorally every four days for 14 days; format: functional; design: scale not given: the % may be the effect or the level left; conditions: route it(Intratumoral), time 14 day
4T1 [19] = assay: Antitumor activity aginst mouse 4T1 cells implanted in Balb/c mouse assessed as nuclei shrinkage at 50 mg/kg, ip administered every two days for 14 days; format: functional, organism-based; conditions: time 14.0 day
MDA-MB-231 [20] = assay: Induction of apoptosis in human MDA-MB-231 cells assessed as increase in Bax protein expression at 1 uM incubated for 24 hrs by Western blot analysis; format: functional, cell-based
[21] = Toxicity in Balb/c mouse implanted with mouse 4T1 cells assessed as liver lesions at 50 mg/kg, ip administered every two days for 14 days by H&E staining based histopathological analysis; format: organism-based; conditions: in vivo, 336 h, time 14 day
4T1 [22] = assay: Antitumor activity against mouse 4T1 cells implanted in Balb/c mouse assessed as TUNEL positive cells at 50 mg/kg administered intratumorally every four days for 14 days in the presence of liquid cyanoacrylate by TUNEL staining analysis; format: functional; conditions: route it(Intratumoral), time 14 day
MDA-MB-231 [23] = assay: Induction of apoptosis in human MDA-MB-231 cells assessed as change in membrane osmotic transport capacity; format: functional, cell-based
MDA-MB-231 [24] = assay: Induction of cell cycle arrest in human MDA-MB-231 cells assessed as increase in S phase cells at 10 uM incubated for 24 hrs by PI staining based flow cytometric analysis (reference value: 16.61%); format: functional
[25] = Toxicity in Balb/c mouse implanted with mouse 4T1 cells assessed as heart lesions at 50 mg/kg, ip administered every two days for 14 days by H&E staining based histopathological analysis; format: organism-based; conditions: in vivo, 336 h, time 14 day
[26] = Toxicity in Balb/c mouse implanted with mouse 4T1 cells assessed as spleen lesions at 50 mg/kg administered intratumorally every four days for 14 days by H&E staining based histopathological analysis; format: organism-based; conditions: in vivo, other, 336 h, route it(Intratumoral), time 14 day
[27] = Toxicity in Balb/c mouse implanted with mouse 4T1 cells assessed as kidney lesions at 50 mg/kg administered intratumorally every four days for 14 days by H&E staining based histopathological analysis; format: organism-based; conditions: in vivo, other, 336 h, route it(Intratumoral), time 14 day
4T1 [28] = assay: Antitumor activity against mouse 4T1 cells implanted in Balb/c mouse assessed as TUNEL positive cells at 50 mg/kg administered intratumorally every four days for 14 days by TUNEL staining analysis (reference value: 6.55%); format: functional; conditions: route it(Intratumoral), time 14 day
[29] = Acute toxicity in mouse assessed as death rate ratio at 300 mg/kg, ip measured over 14 days; format: organism-based; conditions: in vivo, 336 h, time 14 day
[30] = Toxicity in Balb/c mouse xenografted with mouse 4T1 cells assessed as liver lesions at 200 mg/kg administered topically over the tumor surface every two days for 14 days in the presence of cyanoacrylate by H&E staining based histopathological analysis; format: organism-based; conditions: in vivo, topical_or_ocular, 336 h, route top, time 14 day
4T1 [31] = assay: Antitumor activity against mouse 4T1 cells implanted in Balb/c mouse assessed as tumor growth inhibition at 50 mg/kg administered intratumorally every four days for 14 days in the presence of liquid cyanoacrylate relative to control; format: functional; conditions: 4T1, 336 h, route it(Intratumoral), time 14 day, read-out: TGI
MDA-MB-231 [32] = assay: Induction of apoptosis in human MDA-MB-231 cells assessed as reduction in cell volume at 1 uM incubated for 24 hrs by transmission electron microscopic analysis; format: functional, cell-based
[33] = Toxicity in Balb/c mouse implanted with mouse 4T1 cells assessed as spleen lesions at 50 mg/kg, ip administered every two days for 14 days by H&E staining based histopathological analysis; format: organism-based; conditions: in vivo, 336 h, time 14 day
[34] = Toxicity in Balb/c mouse implanted with mouse 4T1 cells assessed as effect on body weight at 50 mg/kg, ip administered every two days for 14 days; format: organism-based; conditions: in vivo, 336 h, time 14 day

## Cc1[nH]c2ccccc2c1C1=C(Cl)C(=O)C(Cl)=C(N2CCOCC2)C1=O
4T1 [1]
  Activity: Active
[2]
  Activity: Non-Toxic
MDA-MB-231 [3]
  Activity: Active
A549
  IC50: 210 nM
MDA-MB-231 [4]
  Activity: Active
4T1 [5]
  T/C: 42%
[6]
  Activity: Non-Toxic
MDA-MB-231 [7]
  Activity: 31.69%
MDA-MB-231 [8]
  Activity: Active
MDA-MB-231 [9]
  Activity: Active
MDA-MB-231 [10]
  Activity: Active
4T1 [11]
  Activity: 19.64%
4T1 [12]
  Activity: Active
[13]
  Activity: Non-Toxic
[14]
  Ratio: 0.66
[15]
  Drug metabolism: Metabolite_Detected
MDA-MB-231 [16]
  Activity: 55.05%
[17]
  Drug metabolism: Metabolite_Detected
4T1 [18]
  Activity: 24.6%
4T1 [19]
  Activity: Active
MDA-MB-231 [20]
  Activity: Active
[21]
  Activity: Non-Toxic
4T1 [22]
  Activity: 49.52%
MDA-MB-231 [23]
  Activity: Active
MDA-MB-231 [24]
  Activity: 28.47%
[25]
  Activity: Non-Toxic
[26]
  Activity: Non-Toxic
[27]
  Activity: Non-Toxic
4T1 [28]
  Activity: 91.48%
[29]
  Ratio: 0.33
[30]
  Activity: Non-Toxic
4T1 [31]
  inhibition in vivo at 50 mg/kg: 49.8%
MDA-MB-231 [32]
  Activity: Active
[33]
  Activity: Non-Toxic
[34]
  Activity: Non-Toxic
